Measurements as given in paper PMC10790361, “Membrane Partitioning of TEMPO Discriminates Human Lung Cancer from Neighboring Normal Cells” (Acta Naturae, 2023).

Columns and labels:
[1] = tested on: membranes of human lung normal (healthy) cells; assay: EPR study of TEMPO partitioning into membranes of healthy (normal) human lung cells; assay type: physicochemical; conditions: for DGK (free energy change to transfer TEMPO from aqueous to lipid phase of the membrane) / DGt (∆Gτ, activation energy of rotational motions of TEMPO in the membrane) / 2Aiso aqueous / 2Aiso membrane: healthy cells; for DGK (free energy change to transfer TEMPO from aqueous to lipid phase of the membrane) / DGt (∆Gτ, activation energy of rotational motions of TEMPO in the membrane): 283–317 K; for 2Aiso aqueous: TEMPO in aqueous phase; for 2Aiso membrane: TEMPO in membrane
Description: (§1) The fresh lung tissue (about 2-3 h after the surgery) was washed thoroughly with PBS buffer to remove blood. Afterward, the tissue was cut into small pieces and then homogenized in PBS buffer using a glass homogenizer. The homogenized lung tissue was washed three times with PBS solution and then centrifuged (Eppendorf 5418) to remove the cell debris. Obtained cell suspension was used for the experiments. The intactness of the cells was assessed by Zeta-potential measurements as shown previously.
(§2) EPR measurements were performed using a Bruker ELEXSYS E580 spectrometer at X-band frequency with variable temperature accessory. The aqueous suspension of lung carcinoma and neighboring normal cells with TEMPO were placed into Pyrex capillary tubes with an I.D. of 0.6 mm. EPR spectra were recorded with the following instrument parameters: scan width: 100 Gauss; sweep time: 40 s; modulation amplitude: 1 Gauss; modulation frequency: 100 kHz; microwave power: 0.47 mW; and time constant: 0.1 s. Before the measurements, the samples were kept for 5 minutes at each temperature to ensure that the sample temperature matched the set temperatures.
(§3) The difference in the nitrogen splitting constant of TEMPO in hydrophobic (cell membrane) and hydrophilic (aqueous) environments is the reason for the split of the third component. Consequently, the EPR spectra of TEMPO incubated with cells in an aqueous environment reflect the partitioning of TEMPO in the lipid fraction of the cell membrane and aqueous environments. To resolve the spectral components, the EPR spectra of TEMPO were analyzed using the LabVIEW program developed by Christian Altenbach (https://sites.google.com/site/altenbach/), using the spectral simulation code written in FORTRAN [34]. Along with computer simulations, rotational correlation times of TEMPO were also calculated using the following formula that uses the peak heights and line widths of the first derivative EPR spectra:
(§4) where W0 is the width (in Gauss) of the central component, while h0 and h-1 are the heights of the central and high-magnetic field components of the first derivative EPR spectrum. As mentioned above, the EPR spectra resulting from the partitioning of TEMPO in the system are composite and consist of two components. Therefore, the formula above was applied after the decomposition of the EPR spectra into lipophilic and hydrophilic components. Because of the close similarity of the correlation times obtained from the software and the formula, data are shown only as deduced from the software.
(§5) Double integrals of the EPR spectral components (Imbrand Iaqrepresent TEMPO confined in the membrane and aqueous environments, respectively) were employed to calculate partition coefficients with the following formula: K = Imbr/(Imbr+ Iaq). To characterize the EPR spectral components, the membrane and aqueous environments were described as lipophylic and hydrophilic, respectively. Apparently, a partition coefficient depends on both the concentration of the lipid fractions and the number of lung cells in the aqueous system. For an accurate comparison of the data related to the partition coefficients, the same amount (by weight) of cancer and normal cell suspensions were used. Both cancer and normal cell suspensions were incubated with TEMPO (150 mM total concentration) for about 30 min. The experimental conditions used in this study allow us to compare the partition coefficients of the normal and cancer cells directly.
(§6) The temperature dependence of the equilibrium constant K (partition coefficient in our case) was used to calculate the free energy changes required to transfer TEMPO molecules from the aqueous to the lipid phase of the membranes of the healthy and cancer cells.
(§7) Similarly, the temperature dependence of the rotational correlation times of TEMPO was used to determine the activation energies for rotational motions in the membranes of the healthy and cancer cells.

[2] = read-out: IC50 (cytotoxicity); cited from earlier work
[3] = tested on: membranes of human lung carcinoma (cancer) cells; assay: EPR study of TEMPO partitioning into membranes of human lung carcinoma cells; assay type: physicochemical; conditions: for 2Aiso aqueous: TEMPO in aqueous phase
Description: as §1, §2, §3, §4, §5, §6, §7

[4] = parameters: method as in PMID 38234602; conditions: cited from earlier work
[5] = from cited IC50 values
[6] = tested on: various cell lines related to breast, colon, liver, and ovary cancer; parameters: method as in PMID 9607601; conditions: range over cell lines related to breast, read-out: IC50 as an antiproliferative agent; cited from earlier work
HCT116 cell lines = tested on: HCT116 cell lines; parameters: method as in PMID 9607601; conditions: cited from earlier work
[7] = cancer cells, pH 6.2, 283–317 K
[8] = cancer cells, pH 7.3, 283–317 K

SMILES: CC1(C)CCCC(C)(C)N1[O] [TEMPO, 2,2,6,6-tetramethylpiperidine-1-oxyl]
- increase of free energy change of TEMPO transfer ([1]; healthy cell membranes, acidic transition from pH 7.3 to pH 6.2): about 19%
- rotational correlation time of TEMPO in membrane ([1]; healthy cell membranes, room temperature, pH 7.3): ~617 ps
- DGK (free energy change to transfer TEMPO from aqueous to lipid phase of the membrane) ([1]; pH 6.2): 3.7 ± 0.3 kcal/mol
- DGt (∆Gτ, activation energy of rotational motions of TEMPO in the membrane) ([1]; pH 6.2): 3.8 ± 0.3 kcal/mol
- 2Aiso aqueous ([1]; pH 6.2): 34.4 Gauss
- 2Aiso membrane ([1]; pH 6.2): 31.9 Gauss
- DGK (free energy change to transfer TEMPO from aqueous to lipid phase of the membrane) ([1]; pH 7.3): 3.1 ± 0.1 kcal/mol
- DGt (∆Gτ, activation energy of rotational motions of TEMPO in the membrane) ([1]; pH 7.3): 1.9 ± 0.2 kcal/mol
- 2Aiso aqueous ([1]; pH 7.3): 34.5 Gauss
- 2Aiso membrane ([1]; pH 7.3): 32.4 Gauss
- 2Aiso values of TEMPO incorporated into the membranes of the cells (interval) ([1]; membranes of healthy and cancer cells, pH 6.2 and 7.3): 31.4−32.4 Gauss
- IC50 [2]: 2700 µM
- increase of free energy change of TEMPO transfer ([3]; cancer cell membranes, acidic transition from pH 7.3 to pH 6.2): ~42%
- rotational correlation time of TEMPO in membrane ([3]; cancer cell membranes, room temperature, pH 7.3): about 490 ps
- less energy required for TEMPO partitioning ([3]; cancer cells at pH 7.3, free energy values compared for pH 6.2 and 7.3): 30%
- DGK (free energy change to transfer TEMPO from aqueous to lipid phase of the membrane) [3, 7]: 1.7 ± 0.1 kcal/mol
- DGt (∆Gτ, activation energy of rotational motions of TEMPO in the membrane) [3, 7]: 2.6 ± 0.3 kcal/mol
- 2Aiso aqueous ([3]; cancer cells, pH 6.2): 34.5 Gauss
- DGK (free energy change to transfer TEMPO from aqueous to lipid phase of the membrane) [3, 8]: 1.2 ± 0.1 kcal/mol
- DGt (∆Gτ, activation energy of rotational motions of TEMPO in the membrane) [3, 8]: 2.1 ± 0.2 kcal/mol
- 2Aiso aqueous ([3]; cancer cells, pH 7.3): 34.5 Gauss
- 2Aiso membrane ([3]; cancer cells, pH 7.3, TEMPO in membrane): 31.5 Gauss
- TEMPO partition coefficient, cancer cells compared with healthy cells ([3]; cancer vs neighboring normal cells, 283–317 K, pH 7.3 and 6.2): significantly higher
- partitioning into liposomes of cancer cell lipids compared to liposomes of normal cell lipids [4]: significantly enhanced partitioning
- IC50 of TEMPO relative to TEMPOL (fold lower) [5]: about 4 fold

SMILES: CC1(C)CC(OC(=O)c2ccccc2)CC(C)(C)N1[O] [TEMPO-benzoate]
- partitioning in liposome studies [4]: significantly enhanced partitioning

SMILES: CC1(C)CC(O)CC(C)(C)N1[O] [TEMPOL, 4-hydroxy-TEMPO]
- IC50 [2]: 11400 µM
- IC50 [6]: 210 to 1070 µM

SMILES: COc1cccc2c1C(=O)c1c(O)c3c(c(O)c1C2=O)C[C@@](O)(C(=O)CO)C[C@@H]3O[C@H]1C[C@H](N)[C@H](O)[C@H](C)O1 [doxorubicin]
- fold decrease of doxorubicin IC50 by TEMPOL pretreatment (HCT116 cell lines): ~7 fold
